{"source": "paper PMC4658208", "about": "(Journal of medicinal chemistry, 2015)", "key": {"[1]": {"conditions": "equilibrium solubility"}, "[2]": {"test_system": "rabbit reticulocytes, eukaryotic TT", "assay": "Eukaryotic TT assay using rabbit reticulocytes", "type": "biochemical", "conditions": "read-out: IC50 eukaryotic TT assay, data not shown"}, "H. influenzae acrB": {"test_system": "H. influenzae acrB", "assay": "Antibacterial activity", "type": "cell-based, Haemophilus influenzae", "conditions": "efflux-negative strain"}, "[3]": {"test_system": "S30 extracts of E. coli, coupled Transcription-Translation (RNA polymerase)", "conditions": "high-throughput screen hit; cited from earlier work"}, "[4]": {"conditions": "logD7.4"}, "[5]": {"test_system": "S30 extracts of E. coli, coupled Transcription-Translation (RNA polymerase)"}, "[6]": {"conditions": "cited from earlier work"}}, "note": "pIC50: −log10 of the molar value."}
{"compound": "3,5-dimethyl-N-(2-(4-(4-methylbenzyl)piperidin-1-yl)-3,4-dioxocyclobut-1-enyl)isoxazole-4-sulfonamide [compound 1]", "values": [{"measurement": "Solubility", "setting": "[1]", "result": ">1000", "unit": "µM"}, {"measurement": "pIC50", "setting": "[2]", "result": "< 4.00"}, {"measurement": "MIC H. influenzae acrB", "setting": "H. influenzae acrB", "result": 200, "unit": "µM"}, {"measurement": "half maximal inhibitory concentration (IC50), TT assay", "setting": "[3]", "result": "sub-micromolar"}, {"measurement": "logD", "setting": "[4]", "result": 0.1}, {"measurement": "pIC50", "setting": "[5]; read-out: IC50 Eco-TT, E. coli coupled transcription-translation assay", "result": 6.55}, {"measurement": "fu, compound fraction unbound to human plasma protein", "setting": "human plasma, minimum detection level 1%", "result": "<1", "unit": "%"}]}
{"compound": "myxopyronin", "values": [{"measurement": "plasma protein binding, in words", "setting": "[6]", "result": "highly plasma protein bound"}]}
{"compound": "Cc1noc(C)c1C(=O)Nc1c(N2CCC(Cc3ccccc3)CC2)c(=O)c1=O", "note": "[compound 4, N-(2-(4-benzylpiperidin-1-yl)-3,4-dioxocyclobut-1-enyl)-3,5-dimethylisoxazole-4-carboxamide]", "values": [{"measurement": "biochemical activity in TT assay, in words", "setting": "[5]", "result": "inactive"}]}
{"compound": "Cc1nn(C(F)F)cc1S(=O)(=O)Nc1c(N2CCC(Cc3ccccc3)CC2)c(=O)c1=O", "note": "[compound 3, N-(2-(4-benzylpiperidin-1-yl)-3,4-dioxocyclobut-1-enyl)-1-(difluoromethyl)-3-methyl-1H-pyrazole-4-sulfonamide]", "values": [{"measurement": "biochemical activity in TT assay, in words", "setting": "[5]", "result": "biochemically active"}]}
{"compound": "Cc1noc(C)c1S(=O)(=O)Nc1c(N2CCC(NCc3ccc(C(F)(F)F)cc3)CC2)c(=O)c1=O", "note": "[compound 14, N-(3,4-dioxo-2-(4-(4-(trifluoromethyl)benzylamino)piperidin-1-yl)cyclobut-1-enyl)-3,5-dimethylisoxazole-4-sulfonamide]", "values": [{"measurement": "improvement of free fraction (fu)", "setting": "compound 14 versus compound 8", "result": 7, "unit": "fold"}, {"measurement": "reduction of free fraction", "setting": "compound 14 versus compound 13", "result": "four"}]}
{"compound": "Cc1noc(C)c1S(=O)(=O)Nc1c(N2CCC(C)CC2)c(=O)c1=O", "note": "[compound 5, 3,5-dimethyl-N-(2-(4-methylpiperidin-1-yl)-3,4-dioxocyclobut-1-enyl)isoxazole-4-sulfonamide]", "values": [{"measurement": "biochemical activity in TT assay, in words", "setting": "[5]", "result": "inactive"}]}
{"compound": "O=c1c(NS(=O)(=O)c2ccccc2)c(N2CCC(Cc3ccccc3)CC2)c1=O", "note": "[compound 2, N-(2-(4-benzylpiperidin-1-yl)-3,4-dioxocyclobut-1-enyl)benzenesulfonamide]", "values": [{"measurement": "reduction in activity/potency in the TT assay", "setting": "[5]; compared to compound 1", "result": 7, "unit": "fold"}]}
{"compound": "Cc1noc(C)c1S(=O)(=O)Nc1c(N2CCC(N(C)CC3CCCCC3)CC2)c(=O)c1=O", "note": "[compound 17, N-(2-(4-((cyclohexylmethyl)(methyl)amino)piperidin-1-yl)-3,4-dioxocyclobut-1-enyl)-3,5-dimethylisoxazole-4-sulfonamide]", "values": [{"measurement": "biochemical activity in TT assay, in words", "setting": "[5]", "result": "inactive"}]}
{"compound": "Cc1noc(C)c1S(=O)(=O)Nc1c(N2CCC(c3ccccc3)CC2)c(=O)c1=O", "note": "[compound 6, N-(3,4-dioxo-2-(4-phenylpiperidin-1-yl)cyclobut-1-enyl)-3,5-dimethylisoxazole-4-sulfonamide]", "values": [{"measurement": "biochemical activity in TT assay, in words", "setting": "[5]", "result": "much less active"}]}
